The text below walks through data of patent publication US20250032624A1, “SMALL MOLECULE DEGRADATION METHODS FOR TREATING ALS/FTD” (University of Florida Research Foundation, Incorporated, priority 2021, published 2025).

Broadly, the IC50 is the concentration that gives 50% inhibition.

Data set [1] has as its system induced pluripotent stem cells (iPSCs). As to the kind of experiment: Cell viability in iPSCs. The class given is cell-based, human. The note with it: doses up to 1 μM. As to the method:
(§1) Patient-derived LCLs were seeded overnight in 96-well plates (˜10^4 cells/well) and treated with compounds for 96 hours. Cell viability was measured using the CellTiter-Fluor™ Cell Viability Assay (Promega) per the manufacturer's protocol. iPSC cell viability was measured by seeding cells in Matrigel-coated 6-well plates with Basal medium (iPSC maintenance described above). After overnight incubation, the medium was replaced with fresh medium containing compounds diluted in 0.1% DMSO. Cells were treated with compound for 96 hours. Cell viability was measured using the AlamarBlue™ Cell Viability Reagent (DAL1025, Thermo Fisher Scientific) per the manufacturer's protocol. iPSN cell viability was measured by […]

For data set [2], the system named is canonical translation. The data set is described as follows: Canonical translation (mCherry) in transfected HEK293T cells. The class given is cell-based. As to the method: (§2) FIG. 8A is a schematic of co-transfection of a No ATG-d(G4C2)66-GFP (SEQ ID NO: 45) plasmid and an ATG-mCherry plasmid into HEK293T cells allows for RAN translation to be measured based on the GFP signal. The mCherry signal measures canonical translation. […] Error bars represent SD.
(§3) HEK293T cells were cultured according to the methods described above. After reaching ˜80% confluency, HEK293T cells were batch-transfected, according to the manufacturer's protocol, in 100 mm dishes using the Lipofectamine 3000 transfection system (Thermo Fischer) for 5 hours with […] of a plasmid encoding r(G4C2)66-no ATG-nano-luciferase and 1 μg of a plasmid encoding SV40-Firefly luciferase (Life Technologies). Cells were seeded into a 384-well plate and incubated overnight. Compounds were treated in <0.1% DMSO final concentration for 24 hours. RAN and canonical translation were measured using a Dual-Luciferase® Reporter Assay System (Promega) following the manufacturer's protocol. Experiments were performed as biological triplicates (n=3). […] in untransfected cells were measured to determine the background signal.

The test system of data set [3] is C9orf72. The data set is described as follows: C9orf72 transcript RT-qPCR in healthy iPSNs. The class given is cell-based, human. The method, then: (§4) Differentiated motor neurons (iPSNs) were derived from the iPSCs listed in the previous section. The differentiation process was based on a previously reported method with slight modifications^33,34. Briefly, iPSCs were plated into Matrigel-coated 100 mm dishes (30-40% confluence). Neuroepithelial induction was performed by replacing the Basal medium with Stage 1 medium [47.5% IMDM (Iscove's Modified Dulbecco's Medium), 47.5% F12 medium, 1% NEAA (Non-Essential Amino Acids) (Life Technologies), 2% B27 (Invitrogen), 1% N2 (Invitrogen), 1% PSA (Penicillin-Streptomycin-Amphotericin), 0.2 μM LDN193189 (Stemgent), 10 μM SB431542 (STEMCELL Technologies) and 3 μM CHIR99021 (Sigma-Aldrich)]. The medium was changed daily for 6 days, after which cells were detached from plates using Accutase (STEMCELL Technologies). Cells were seeded into 6-well plates (1.5×10^6 cells/well) in 3 mL of Stage 2 medium [Stage 1 medium supplemented with 0.1 μM All-trans RA (Sigma-Aldrich) and 1 μM SAG (Cayman Chemicals)]. Cells were maintained in Stage 2 medium, with daily medium changes, through Day 11 of the differentiation process. On Day 12, the Stage 2 cell medium was removed and replaced with Stage 3 medium [47.5% IMDM, 47.5% F12 medium, 1% NEAA, 2% B27, 1% N2, 1% PSA, 0.1 μM Compound E (Millipore; Catalog #: 565790), 2.5 μM DAPT (Sigma-Aldrich), 0.1 μM db-cAMP (Millipore), 0.5 μM All-trans RA, 0.1 μM SAG, 20 ng/mL ascorbic acid, 10 ng/mL BDNF (STEMCELL Technologies), and 10 ng/mL GDNF (STEMCELL Technologies)]. This medium was replaced every three days until the end of the differentiation process. Typically, a minimum of 18 days is required to produce immature differentiated motor neurons; 30 days of differentiation is the standard for producing mature differentiated spinal neurons. The cells can be maintained in medium for an additional 14-28 days after reaching maturation. […]
(§5) For iPSNs cells were differentiated, following the protocol outlined above, until Day 15. […] RNA was extracted as described above and the expression levels of C9orf72 variants was determined by RT-qPCR and normalized to GAPDH. […]

Data set [4] relates to iPSC differentiated motor neurons (iPSNs). As to the kind of experiment: Cell viability in iPSNs. The note with it: doses up to 1 μM. The class given is cell-based, human. As to the method:
as §1

Data set [5] deals with r(GGCC)8. As to the kind of experiment: Affinity by MST, base-paired control r(GGCC)8. The class given is binding. The following applies: base-paired control r(GGCC)8, concentrations up to 20 μM. As to the method:
Affinity measurements were performed by MST using a Monolith NT.115 system (NanoTemper Technologies) with 5′-Cy5-labeled r(G4C2)8 (SEQ ID NO: 1), 5′-Cy5-labeled d(G4C2)8 (SEQ ID NO: 1), and 5′-Cy5-labeled base pair control r(G2C2)4GAAA(G2C2)4 (SEQ ID NO: 49). All oligos were deprotected according to the manufacturer's recommended protocol. Samples were prepared as previously described^30. Briefly, RNA or DNA (5 nM) was folded in 1×MST Buffer (8 mM Na2HPO4, 185 mM NaCl, 1 mM EDTA) by heating at 95° C. for 5 minutes and slowly cooling to room temperature. Tween-20 was then added to a final concentration of 0.05% (v/v). Serial dilutions of compound in 1×MST Buffer containing 5 nM folded nucleic acid were then carried out to yield the desired compound concentrations. Samples were incubated for 90 minutes at room temperature and then loaded into premium capillaries (NanoTemper Technologies). The following parameters were used on the Monolith NT.115 system: 10% LED, 20-80% MST power, Laser-On time=30 s, Laser-Off time=5 seconds. Fluorescence was detected using excitation wavelengths of 605-645 nm and emission wavelengths of 680-685 nm. The resulting data were analyzed by thermophoresis analysis and fit using the quadratic binding equation in the MST analysis software (NanoTemper Technologies). The dissociation constant was determined using Equation 1. […]

Data set [6] deals with r(G4C2)^exp-containing C9orf72 transcript. The data set is described as follows: C9orf72 transcript RT-qPCR in c9ALS/FTD iPSNs. The class given is cell-based, human. The method, then: as §4, §5
Data set [7] deals with RAN translation of r(G4C2)66. The data set is described as follows: RAN translation assay in transfected HEK293T cells. The class given is cell-based. The note with it: read-out: IC50 of GFP signal (RAN translation). As to the method: as §2, §3

As for `CCOC(=O)C1=C(Nc2ccccc2)S/C(=C\c2ccc(OCCOCCOCCOCCNC(=O)CCCOc3ccc4c(c3)c3cc5c(C(=O)N[C@H](C)CN(C)C)nccc5c(C)c3n4C)c(O)c2)C1=O` [ALS Compound Formula I], in data set [1], the toxicity entry is reported as “no significant toxicity”. For the same molecule, in data set [2], the “effect on mCherry signal (canonical translation)” value is “no effect”. For the same molecule, in data set [3], the “effect on exon 2-3 levels” value is on record as “No effect”, the “effect on intron 1b levels” value was “No effect” and the “effect on intron 1 levels” value was “No effect”. Further, the toxicity entry in data set [4] was “no significant toxicity”. Moreover, the saturable binding result in data set [5] was “No saturable binding”. In addition, the “exon 1b transcript abundance” value in data set [6] is listed as “unaffected”. For the same molecule, in data set [6] (500 nM), the “decrease in C9orf72 exon 2-3 abundance” value is roughly 40% and the “decrease in C9orf72 intron 1 levels” value was roughly 50%. The IC50 in data set [7] was roughly 500 nM.
